In US4179441A, “Fungidal and herbicidal 2-substituted-3-oxa-3aλ^4, 4-dithia-6-halo-1,5-diazapentalene” (Chevron Research Company, priority 1977, dated 1979):
Like-named read-outs stand apart in the source and are kept apart here.

Tests used:
Alternaria solani = experiment: Tomato Early Blight; type: in vivo; settings: 288 h, read-out: Tomato Early blight % Control
Phytophthora infestans = experiment: whole plant or invertebrate; type: in vivo; settings: in Solanum lycopersicum, 168 h, read-out: Tomato Late Blight % Control
Botrytis cinerea = Botrytis cinerea control (detached horsebean leaves); type: in vivo; settings: 3 to 5 days
Protocol: Compounds of the invention were tested for Botrytis cinerea control using detached, well-developed primary leaves of a 4-6 week old horsebean plant. […] The leaves were allowed to dry while the filter paper was kept moist by adding water as required. The treated leaves were then inoculated with the spores of Botrytis cinerea fungus grown on potato. The plate was covered after inoculation and kept at 23.5° C. The filter-paper lining of the plate was kept saturated with water throughout the test. The rate of disease incidence was determined in 3 to 5 days, when the disease symptoms were fully evident on non-treated check leaves. […]

Erysiphe polygoni = experiment: Powdery Mildew (bean seedlings); type: in vivo; settings: 240 h, 250 ppm spray on bean seedlings, about 10 days, relative to untreated check plants
Description: The powdery mildew test was made using bean seedlings (var. Bountiful) with well-developed primary leaves. The pathogen was Erysiphe polygoni. The bean seedlings were sprayed with a 250 ppm solution of the test compound in an acetone-water mixture containing a nonionic emulsifier. The treated plants were inoculated one day after spray application of the test compound with the pathogen. […] The rate of infection on the leaves was made after about 10 days. The percent disease control provided by a given test compound was based on the disease reduction relative to untreated check plants.

Aspergillus niger = experiment: Mycelia Inhibition; type: cell-based; settings: mycelial inhibition, 25° C., 24 hours
Pythium ultimum = experiment: Mycelia Inhibition; type: cell-based; settings: mycelial inhibition, 25° C., 24 hours
Rhizoctonia solani = experiment: Mycelia Inhibition; type: cell-based; settings: mycelial inhibition, 25° C., 24 hours
Fusarium moniliforme = experiment: Mycelia Inhibition; type: cell-based; settings: mycelial inhibition, 25° C., 24 hours
[1] = tested on: Watergrass (Echinochloa crusgalli); experiment: Post-emergent herbicidal test; type: in vivo; settings: 0-to-100 scale
Wild Oats (Avena fatua) [2] = experiment: Post-emergent herbicidal test; type: in vivo; settings: 0-to-100 scale
[3] = tested on: Crabgrass (Digitaria sanguinalis); experiment: Post-emergent herbicidal test; type: in vivo; settings: 0-to-100 scale
[4] = tested on: Mustard (Brassica arvensis); experiment: Post-emergent herbicidal test; type: in vivo; settings: 0-to-100 scale
[5] = tested on: Mustard (Brassica arvensis); experiment: Pre-Emergent herbicidal test; type: in vivo; settings: 33 micrograms/cm^2, 3 weeks, 0-to-100 scale, 100 = complete kill
Protocol: (§1) Pre-emergent herbicidal tests on representative compounds of the invention were made using the following method:
(§2) An acetone solution of the test compound was prepared by mixing 750 mg of the compound, 220 mg of a nonionic surfactant and 25 ml of acetone. This solution was added to approximately 125 ml of water containing 156 mg of surfactant.
(§3) Seeds of the test vegetation were planted in a pot of soil and the test solution was sprayed uniformly onto the soil surface at a dose of 33 micrograms/cm^2. The pot was watered and placed in a greenhouse. […] At the end of this period, the herbicidal effectiveness of the compound was rated based on the physiological observations. A 0-to-100 scale was used, 0 representing no phytotoxicity, 100 representing complete kill.

[6] = tested on: Lambsquarter (Chenopodium album); experiment: Pre-Emergent herbicidal test; type: in vivo; settings: 33 micrograms/cm^2, 3 weeks, 0-to-100 scale, 100 = complete kill
Protocol: as §1, §2, §3

[7] = tested on: Watergrass (Echinochloa crusgalli); experiment: Pre-Emergent herbicidal test; type: in vivo; settings: 33 micrograms/cm^2, 3 weeks, 0-to-100 scale, 100 = complete kill
Protocol: as §1, §2, §3

[8] = tested on: Crabgrass (Digitaria sanguinalis); experiment: Pre-Emergent herbicidal test; type: in vivo; settings: 33 micrograms/cm^2, 3 weeks, 0-to-100 scale, 100 = complete kill
Protocol: as §1, §2, §3

Wild Oats (Avena fatua) [9] = experiment: Pre-Emergent herbicidal test; type: in vivo; settings: 33 micrograms/cm^2, 3 weeks, 0-to-100 scale, 100 = complete kill
Protocol: as §1, §2, §3

[10] = tested on: Lambsquarter (Chenopodium album); experiment: Post-emergent herbicidal test; type: in vivo; settings: 0-to-100 scale
[11] = 250 ppm spray, inoculated one day later, based on untreated check plants

| Structure (SMILES) | pest or weed control at 250 ppm (Alternaria solani; [11]) | pest or weed control at 250 ppm (Phytophthora infestans) | pest or weed control at 250 ppm (Erysiphe polygoni) | Aspergillus niger, micrograms/cm^2 for 99% control of the fungus (Aspergillus niger) | Rhizoctonia solani, micrograms/cm^2 for 99% control of the fungus (Rhizoctonia solani) | Fusarium moniliforme, micrograms/cm^2 for 99% control of the fungus (Fusarium moniliforme) | further results |
| --- | --- | --- | --- | --- | --- | --- | --- |
| ClC1=NSS2=C1N=C(c1ccc(Cl)c(Cl)c1)O2 (centres unmarked) [Compound 1] | 39% | 60% |  |  |  |  |  |
| Fc1ccccc1C1=NC2=S(O1)SN=C2Cl (centres unmarked) [Compound 2] |  | 93% | 35% |  |  |  | Botrytis Cinerea, micrograms/cm^2 for 99% control of the fungus (Botrytis cinerea): 1.6 micrograms/cm^2 |
| ClC1=NSS2=C1N=C(c1ccc(Cl)cc1)O2 (centres unmarked) [Compound 3] |  | 98% | 76% |  |  |  | Botrytis Cinerea, micrograms/cm^2 for 99% control of the fungus (Botrytis cinerea): 1.1 micrograms/cm^2 |
| ClCC1=NC2=S(O1)SN=C2Cl (centres unmarked) [Compound 5, 2-chloromethyl-3-oxa-3aλ^4,4-dithia-6chloro-1,5-diazapentalene] | 73% | 81% |  | 1.1 micrograms/cm^2 | 0.38 micrograms/cm^2 | > 1.7 micrograms/cm^2 | Pythium ultimum, micrograms/cm^2 for 99% control of the fungus (Pythium ultimum): 0.12 micrograms/cm^2 |
| ClC1=NSS2=C1N=C(c1ccccc1)O2 (centres unmarked) [Compound 6] |  | 93% | 100% |  |  |  | pest or weed control at 250 ppm (Alternaria solani): 75% |
| O=[N+]([O-])c1ccc(C2=NC3=S(O2)SN=C3Cl)cc1 (centres unmarked) [Compound 7] | 23% | 90% |  |  |  |  |  |
| ClC1=NSS2=C1N=C(c1ccco1)O2 (centres unmarked) [Compound 8, 2-(2-furyl)-3-oxa-3aλ^4,4-dithia-6-chloro-1,5-diazapentalene] | 56% |  |  | 0.49 micrograms/cm^2 | 0.34 micrograms/cm^2 | 0.95 micrograms/cm^2 | Botrytis Cinerea, micrograms/cm^2 for 99% control of the fungus (Botrytis cinerea): 0.15 micrograms/cm^2; Pythium ultimum, micrograms/cm^2 for 99% control of the fungus (Pythium ultimum): 0.29 micrograms/cm^2 |
| ClC1=NSS2=C1N=C(CSc1ccc(Cl)cc1)O2 (centres unmarked) [Compound 10, 2-(4-chlorophenylthio-methyl)-3-oxa-3aλ^4,4-dithia-6-chloro-1,5-diazapentalene] |  | 81% |  | 0.52 micrograms/cm^2 | 1.2 micrograms/cm^2 | > 1.7 micrograms/cm^2 | Pythium ultimum, micrograms/cm^2 for 99% control of the fungus (Pythium ultimum): > 1.7 micrograms/cm^2 |
| ClC1=NSS2=C1N=C(CSCc1ccc(Cl)cc1)O2 (centres unmarked) [Compound 11] |  | 93% |  | 0.46 micrograms/cm^2 | 0.5 micrograms/cm^2 | > 1.7 micrograms/cm^2 | Pythium ultimum, micrograms/cm^2 for 99% control of the fungus (Pythium ultimum): > 1.7 micrograms/cm^2 |
| ClC1=NSS2=C1N=C(c1cccs1)O2 (centres unmarked) [Compound 12] | 68% | 89% | 54% | 1.2 micrograms/cm^2 | 0.5 micrograms/cm^2 | > 1.7 micrograms/cm^2 | Botrytis Cinerea, micrograms/cm^2 for 99% control of the fungus (Botrytis cinerea): 1.4 micrograms/cm^2; Pythium ultimum, micrograms/cm^2 for 99% control of the fungus (Pythium ultimum): > 1.7 micrograms/cm^2 |
| Oc1ccccc1C1=NC2=S(O1)SN=C2Cl (centres unmarked) [Compound 13] | 51% | 27% |  | 0.98 micrograms/cm^2 | 0.5 micrograms/cm^2 | > 1.7 micrograms/cm^2 | Pythium ultimum, micrograms/cm^2 for 99% control of the fungus (Pythium ultimum): > 1.7 micrograms/cm^2 |
| ClC1=NSS2=C1N=C(C(Cl)(Cl)Cl)O2 (centres unmarked) [Compound 14] | 21% |  |  |  |  |  |  |
| ClC1=NSS2=C1N=C(c1c(Cl)cccc1Cl)O2 (centres unmarked) [Compound 15] |  |  |  |  |  |  | Botrytis Cinerea, micrograms/cm^2 for 99% control of the fungus (Botrytis cinerea): 1.6 micrograms/cm^2 |
| ClC1=NSS2=C1N=C(c1cc(Cl)cc(Cl)c1)O2 (centres unmarked) [Compound 16] |  |  | 23% |  |  |  |  |
| O=[N+]([O-])c1ccc(Cl)cc1C1=NC2=S(O1)SN=C2Cl (centres unmarked) [Compound 17] |  | 80% |  |  |  |  |  |
| N#CSCC1=NC2=S(O1)SN=C2Cl (centres unmarked) [Compound 20, 2-thiocyanatomethyl-3-oxa-3aλ^4,4-dithia-6-chloro-1,5-diazapentalene] |  |  |  | 0.6 micrograms/cm^2 | 0.33 micrograms/cm^2 | > 1.7 micrograms/cm^2 | Botrytis Cinerea, micrograms/cm^2 for 99% control of the fungus (Botrytis cinerea): 0.88 micrograms/cm^2 |
| ClC1=NSS2=C1N=C(C1CC1)O2 (centres unmarked) [Compound 21, 2-cyclopropyl-3-oxa-3aλ^4,4-dithia-6-chloro-1,5-diazapentalene] | 23% | 97% |  |  |  |  |  |
| N#CSc1cccc(C2=NC3=S(O2)SN=C3Cl)c1 (centres unmarked) [Compound 22] |  |  | 35% |  |  |  |  |
| ClC1=NSS2=C1N=C(C(Cl)=C(Cl)Cl)O2 (centres unmarked) [Compound 23, 2-trichlorovinyl-3-oxa-3aλ^4,4-dithia-6-chloro-1,5-diazapentalene] |  | 98% | 95% |  |  |  |  |
| ClC1=NSS2=C1N=C(COc1ccc(Cl)cc1)O2 (centres unmarked) [Compound 25] |  |  | 29% |  |  |  | pest or weed control at 250 ppm (Alternaria solani): 88%; Herbicidal Effectiveness - Post, W [1]: 0; Herbicidal Effectiveness - Post, O (Wild Oats (Avena fatua) [2]): 0; Herbicidal Effectiveness - Post, C [3]: 0; Herbicidal Effectiveness - Post, M [4]: 85; Herbicidal Effectiveness - Pre, M [5]: 95; Herbicidal Effectiveness - Pre, L [6]: 90; Herbicidal Effectiveness - Pre, W [7]: 20; Herbicidal Effectiveness - Pre, C [8]: 70; Herbicidal Effectiveness - Pre, O (Wild Oats (Avena fatua) [9]): 0; Herbicidal Effectiveness - Post, L [10]: 85 |
| ClC1=NSS2=C1N=C(COc1cc(Cl)ccc1Cl)O2 (centres unmarked) [Compound 27] |  |  |  |  |  |  | Herbicidal Effectiveness - Post, W [1]: 0; Herbicidal Effectiveness - Post, O (Wild Oats (Avena fatua) [2]): 0; Herbicidal Effectiveness - Post, C [3]: 90; Herbicidal Effectiveness - Post, M [4]: 80; Herbicidal Effectiveness - Pre, M [5]: 87; Herbicidal Effectiveness - Pre, L [6]: 82; Herbicidal Effectiveness - Pre, W [7]: 55; Herbicidal Effectiveness - Pre, C [8]: 55; Herbicidal Effectiveness - Pre, O (Wild Oats (Avena fatua) [9]): 0; Herbicidal Effectiveness - Post, L [10]: 90 |
| ClC1=NSS2=C1N=C(c1ccccc1I)O2 (centres unmarked) [Compound 28] |  | 75% | 69% |  |  |  |  |
